Assay results published in patent publication US20210290732A1, “GLP-1R and GCGR Agonists, Formulations, and Methods of Use” (Spitfire Pharma LLC, priority 2020, published 2021).
Where “and” joins values, the source holds several entries; their conditions need not be identical. Identical values can stand only once. Positions of bridges follow the written chain, without caps; N, C: chain ends. Non-standard residues stand in square brackets, D forms with d. No end group written: not given here. GC8 = D-glucoside-derived uronic acid with C8 alkyl chain; Aib = CC(C)(N)C(=O)O

How the values were obtained:
[1] = molecular target: T1, human GLP-1R (Homo sapiens, UniProt P43220); test: cAMP receptor activation assay, human GLP-1R cloned into CHO cells (DiscoverX LeadHunter / cAMP Hunter); assay type: cell-based; conditions: for Selectivity Ratio GLP-1R vs GCGR: SR = GCGR EC50/GLP-1 EC50, 0.1% BSA; for EC50: cAMP, CHO cells, 0.1% BSA containing buffers, read-out: pEC50 (SE) hu GLP-1 (converted)
T1 construct: host or cells: CHO-K1
T1 sequence (P43220 24-463): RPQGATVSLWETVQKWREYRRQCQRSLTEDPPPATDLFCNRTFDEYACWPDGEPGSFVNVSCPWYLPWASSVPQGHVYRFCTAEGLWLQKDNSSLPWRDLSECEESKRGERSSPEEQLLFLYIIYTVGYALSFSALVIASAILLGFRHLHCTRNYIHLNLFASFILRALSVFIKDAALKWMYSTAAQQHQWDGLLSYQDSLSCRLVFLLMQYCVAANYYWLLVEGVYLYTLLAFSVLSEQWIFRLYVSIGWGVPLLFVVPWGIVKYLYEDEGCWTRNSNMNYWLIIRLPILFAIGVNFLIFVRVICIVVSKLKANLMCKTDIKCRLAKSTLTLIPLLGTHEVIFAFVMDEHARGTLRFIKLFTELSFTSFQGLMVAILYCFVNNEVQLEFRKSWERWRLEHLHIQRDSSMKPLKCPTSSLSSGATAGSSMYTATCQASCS
Protocol: (§2) Cellular assays were carried out using standard cellular assays (DiscoveRx, LeadHunter assays) using readout of cAMP stimulation or arrestin activation. Compounds were weighed precisely in an amount of approximately 1 mg and shipped to DiscoverX (Fremont, Calif.) for dilution and assay. […] Assays were carried out in the presence of 0.1% ovalbumin. […] Use of 0.1% ovalbumin can avoid this problem.
(§3) Assays were carried out in the presence of 0.1% ovalbumin. […] Use of 0.1% ovalbumin can avoid this problem.
(§4) Receptor activation assays were performed at DiscoverX laboratories (Fremont, Calif.) using human GLP-1R and GCGR cloned into Chinese Hamster Ovary (CHO) cells (LeadHunter Discovery Services; assay product 86-0007D cAMP Hunter™ using huGLP1R and huGCGR; whole cell cAMP accumulation assays; cell lines used were cAMP Hunter™ CHO-K1 GCGR Gs Cell Line, catalog 95-0042C2 and cAMP Hunter™ CHO-K1 GLP1 Gs Cell Line, catalog 95-0062C2; readout of accumulated cAMP was made using readout HitHunter cAMP XS+ assay). Cell lines are maintained at DiscoverX and were incubated with test agents for 30 m at 37° C. for accumulation of cAMP. […] Results described herein are from single assays performed on cells in duplicate and data were replotted in Prism 5 to provide pEC50 (SE) data.
(§5) In vitro data are presented as pEC50 (SE) determined in Prism 5 by nonlinear regression analysis of the raw fluorescence data normalized by corresponding response to internal standards (see Supporting Information for data plots).

[2] = pharmacokinetics in Gottingen minipigs (cassette sc dosing, 20 nmol/kg); assay type: in vivo, Gottingen minipig; conditions: 20 nmol/kg sc; for plasma levels compared to liraglutide: analogue 2 at 4 h, 4 at 2-12 h, 5 at 2, 12, 24 h
From the text: This study uses a cassette style dosing, to minimize large animal usage, but with injection subcutaneously at separate sites to preclude each compound's influencing uptake of another compound. A total of two male Gottingen minipigs were assigned to study. The animals were pair housed in pens on raised floor caging. The animals weighed between approximately 11-15 kg at transfer and approximately 5-8 months of age. The same animals were to be used for multiple phases, following a minimum 1-week washout period. To facilitate dosing and to ensure animal safety during the dosing procedure, animals were sedated with Telazol (IM, 4-6 mg/kg) prior to dosing. Dosing was subcutaneous via bolus injection between the skin and underlying layers of tissue in the ventral region of the animal. A total of […] sites were used for each phase with different compounds dosed at each of the 4 sites. Compounds are formulated in saline containing 0.2% BSA […] at pH 3.5. Each stock solution was diluted with normal saline (pH 7.4) to the required final conc and sterile filtered. Dosing is at 20 nmol/kg. Blood samples were collected pre-dose and at 2, 4, 6, 8, 12, 24, 36, 48, 72 and 96-hours post-dose. At each blood collection time point a 1 mL sample is taken from the jugular vein into K2EDTA tubes on ice before processing to plasma by centrifugation. The plasma samples containing the 4 test compounds were sent to Climax Labs for separation and quantitation by LC-MS/MS as noted below (2.5.3).
Analysis was carried out at Climax Laboratories (San Jose, Calif.) on an API-4000 Mass Spectrometer, ESI positive, MRM scan. Samples were loaded on a Shimadzu HPLC/CTC Autosampler with an ACE C4 column (2.1×50 mm, 5 μm). Elution was by gradient from aqueous 0.5% formic acid, 5 mM NH4OAc to 0.5% formic acid in CH3CN/H2O (9:1). […] After transfer to a 96 well plate, a 40 μL sample was injected and the individual compound peaks were quantitated with standard curves. […] The quantitation limit is 1-2 ng/mL, depending on analog structure.

[3] = molecular target: GCGR (Homo sapiens, UniProt P47871); test: cAMP receptor activation assay, human GCGR cloned into CHO cells (DiscoverX LeadHunter / cAMP Hunter); assay type: cell-based; design: host or cells: CHO-K1; conditions: cAMP, CHO cells, 0.1% BSA containing buffers; read-out: pEC50 (SE) huGCGR (converted)
Protocol: as §2, §3, §4, §5

[4] = clinical studies, cited from earlier work
[5] = tested on: DIO-NASH mice; test: DIO-NASH mouse study, 12 weeks of QD dosing; assay type: in vivo
Protocol: All mice entering the experiment have been pre-biopsied, stratified based on liver biopsy (only animals with fibrosis 1 or above and steatosis 2 or above are included) animals stratified into groups based on Col1a1 immunostaining. […] Body weight (BW) was measured daily for the entire study period, food intake daily for the first 14 days then weekly until study end. Terminal plasma was measured for ALT/AST/TG/TC levels. Terminal liver removal and sampling was carried out for pre to post NAFLD Activity Score (NAS; HE staining) including Fibrosis Stage (Picrosirius red, PSR). Terminal histology was carried out for steatosis, Col1a1 and galectin-3 quantitation. Terminal liver workup included TG+TC (extraction and measurement). Terminal liver biopsies were set up in: 1) 4% PFA for histology, 2) fresh frozen liver for biochemistry, 3) fresh frozen liver for RNA extraction and RNAseq.

[6] = CMC of Polysorbate 20 in F58 buffer pH 7.7 with added ALT-801 by surface tensiometry; assay type: physicochemical
From the text: (§1) CMC shifts are simply calculated as CMC in the presence of the ALT-801 less the CMC for the surfactant alone in solution.

[7] = CMC of Polysorbate 80 in F58 buffer pH 7.7 with added ALT-801 by surface tensiometry; assay type: physicochemical
From the text: as §1

[8] = molecular target: human glucagon-like peptide 1 receptor (GLP-1R) (human, UniProt P43220 24-463); test: cell-based or functional assay
human glucagon-like peptide 1 receptor (GLP-1R), sequence (P43220 24-463): as above

[9] = molecular target: human glucagon receptor (GCGR) (human, UniProt P47871 26-477); test: cell-based or functional assay

Molecule: CCCCCCCCCCO[C@@H]1O[C@H](C(=O)NCCCC[C@H](NC(=O)[C@@H](NC(=O)[C@H](Cc2ccccc2)NC(=O)[C@H](CCC(=O)O)NC(=O)[C@@H]2CCCCNC(=O)CC[C@H](NC(=O)[C@H](CC(=O)O)NC(=O)[C@H](CC(C)C)NC(=O)[C@H](Cc3ccc(O)cc3)NC(=O)[C@H](CCCCN)NC(=O)[C@H](CO)NC(=O)[C@H](Cc3ccc(O)cc3)NC(=O)[C@H](CC(=O)O)NC(=O)[C@H](CO)NC(=O)[C@@H](NC(=O)[C@H](Cc3ccccc3)NC(=O)[C@@H](NC(=O)CNC(=O)[C@H](CCC(N)=O)NC(=O)C(C)(C)NC(=O)[C@@H](N)Cc3c[nH]cn3)[C@@H](C)O)[C@@H](C)O)C(=O)N[C@@H](CCC(N)=O)C(=O)N[C@@H](C)C(=O)N[C@@H](C)C(=O)N2)[C@@H](C)CC)C(=O)N[C@@H](Cc2c[nH]c3ccccc23)C(=O)N[C@@H](CC(C)C)C(=O)N[C@@H](CC(C)C)C(=O)N[C@@H](CCC(N)=O)C(=O)N[C@H](C(N)=O)[C@@H](C)O)[C@@H](O)[C@H](O)[C@H]1O [analogue 2]
- Selectivity Ratio GLP-1R vs GCGR [1]: 2
- EC50 [1]: 12.6 pM
- plasma levels compared to liraglutide [2]: Significantly higher plasma levels
- EC50 [3]: 20 pM

Molecule: CCCCCCCCCCCCCCO[C@@H]1O[C@H](C(=O)NCCCC[C@H](NC(=O)[C@@H](NC(=O)[C@H](Cc2ccccc2)NC(=O)[C@H](CCC(=O)O)NC(=O)[C@@H]2CCCCNC(=O)CC[C@H](NC(=O)[C@H](CC(=O)O)NC(=O)[C@H](CC(C)C)NC(=O)[C@H](Cc3ccc(O)cc3)NC(=O)[C@H](CCCCN)NC(=O)[C@H](CO)NC(=O)[C@H](Cc3ccc(O)cc3)NC(=O)[C@H](CC(=O)O)NC(=O)[C@H](CO)NC(=O)[C@@H](NC(=O)[C@H](Cc3ccccc3)NC(=O)[C@@H](NC(=O)CNC(=O)[C@H](CCC(N)=O)NC(=O)C(C)(C)NC(=O)[C@@H](N)Cc3c[nH]cn3)[C@@H](C)O)[C@@H](C)O)C(=O)N[C@@H](CCC(N)=O)C(=O)N[C@@H](C)C(=O)N[C@@H](C)C(=O)N2)[C@@H](C)CC)C(=O)N[C@@H](Cc2c[nH]c3ccccc23)C(=O)N[C@@H](CC(C)C)C(=O)N[C@@H](CC(C)C)C(=O)N[C@@H](CCC(N)=O)C(=O)N[C@H](C(N)=O)[C@@H](C)O)[C@@H](O)[C@H](O)[C@H]1O [analogue 4]
- Selectivity Ratio GLP-1R vs GCGR [1]: 2
- EC50 [1]: 15.8 pM
- Cmax and PK profiles [2]: optimal
- plasma levels compared to liraglutide [2]: Significantly higher plasma levels
- EC50 [3]: 30.2 pM

Molecule: CCCCCCCCCCCCCCCC(=O)N[C@@H](CCC(=O)NCCCC[C@H](NC(=O)[C@H](CC(=O)O)NC(=O)[C@H](CO)NC(=O)[C@@H](NC(=O)[C@H](Cc1ccccc1)NC(=O)[C@@H](NC(=O)CNC(=O)[C@H](CCC(N)=O)NC(=O)[C@H](CO)NC(=O)[C@@H](N)Cc1c[nH]cn1)[C@@H](C)O)[C@@H](C)O)C(=O)N[C@@H](CO)C(=O)N[C@@H](CCC(=O)O)C(=O)N[C@@H](Cc1ccc(O)cc1)C(=O)N[C@@H](CC(C)C)C(=O)N[C@@H](CC(=O)O)C(=O)N[C@@H](CO)C(=O)N[C@@H](CCC(=O)O)C(=O)N[C@@H](CCCNC(=N)N)C(=O)N[C@@H](C)C(=O)N[C@@H](CCCNC(=N)N)C(=O)N[C@@H](CC(=O)O)C(=O)N[C@@H](Cc1ccccc1)C(=O)N[C@H](C(=O)N[C@@H](C)C(=O)N[C@@H](Cc1c[nH]c2ccccc12)C(=O)N[C@@H](CC(C)C)C(=O)N[C@@H](CCC(=O)O)C(=O)N[C@@H](C)C(=O)NCC(=O)NCC(=O)O)C(C)C)C(=O)O [cotadutide]
- reduction in liver fat content ([4]; 6 weeks): 39%
- weight loss over 26 weeks [4]: 5.4%

Molecule: CSc1ccc(C(=O)/C=C/c2cc(C)c(OC(C)(C)C(=O)O)c(C)c2)cc1 [elafibranor]
- body weight compared to NASH control (p≤0.001) ([5]; ALT-801 5 and 10 nmol/kg, elafibranor 78 μmol/kg, semaglutide 10 nmol/kg): statistically significantly decreased body weight
- NAFLD activity score (NAS) reduction compared to the start of treatment ([5]; NASH mice, 78 μmol/kg PO QD, 12 weeks): 42%
- expression of cell death genes vs NASH vehicle control ([5]; NASH mice, liver RNAseq): No statistical differences
- expression of genes affecting fat usage and transport vs NASH vehicle control ([5]; NASH mice, liver RNAseq): significantly lower GPAT2 (p<0.001) and GPAT4 (p<0.001)
- expression of liver inflammation genes (FOSB, JUN, TLR4) vs NASH vehicle control ([5]; NASH mice, liver RNAseq): No statistically significant changes
- number of differentially expressed genes (liver RNA sequencing) ([5]; NASH mice, high dose ALT-801, elafibranor, semaglutide): ~5800

Molecule: Polysorbate 20
- Polysorbate 20 CMC Value, No ALT-801, Average [6]: 0.722 mg/mL
- Polysorbate 20 CMC Value, No ALT-801 ([6]; Test # 1 and 2): 0.721 mg/mL and 0.722 mg/mL

Molecule: Polysorbate 80
- CMC Shift Due to ALT-801 ([7]; 5.0 mg/ml ALT-801): 5.16 mg/mL
- Extent of Interaction mg PS80/mg ALT-801 ([7]; 5.0 mg/ml ALT-801): 1.03 mg/mg
- Extent of Interaction moles PS80/molesALT-801 ([7]; 5.0 mg/ml ALT-801): 3.05 mole/mole
- CMC Shift Due to ALT-801 ([7]; 10.0 mg/ml ALT-801): 10.32 mg/mL
- Extent of Interaction mg PS80/mg ALT-801 ([7]; 10.0 mg/ml ALT-801): 1.03 mg/mg
- Extent of Interaction moles PS80/molesALT-801 ([7]; 10.0 mg/ml ALT-801): 3.05 mole/mole
- Polysorbate 80 CMC Value 5.0 mg/ml ALT-801, Average ([7]; F58 buffer pH 7.7, 5.0 mg/ml ALT-801): 5.34 mg/mL
- Polysorbate 80 CMC Value 5.0 mg/ml ALT-801 ([7]; F58 buffer pH 7.7, 5.0 mg/ml ALT-801, single test): 5.35 mg/mL and 5.33 mg/mL
- Polysorbate 80 CMC Value 10.0 mg/ml ALT-801, Average ([7]; F58 buffer pH 7.7, 10.0 mg/ml ALT-801): 10.50 mg/mL
- Polysorbate 80 CMC Value 10.0 mg/ml ALT-801 ([7]; F58 buffer pH 7.7, 10.0 mg/ml ALT-801, single test): 10.49 mg/mL and 10.50 mg/mL
- Polysorbate 80 CMC Valve No ALT-801, Average ([7]; F58 buffer pH 7.7, no ALT-801): 0.183 mg/mL
- Polysorbate 80 CMC Valve No ALT-801 ([7]; F58 buffer pH 7.7, no ALT-801, single test): 0.182 mg/mL and 0.183 mg/mL
- Extent of Interaction mg PS80/mg ALT-801 ([7]; […] ALT-801): 1.03 mg/mg
- Extent of Interaction moles PS80/molesALT-801 ([7]; […] ALT-801): 3.05 mole/mole

B1: Analogue 1 (SEQ ID NO: 12) (peptide)
peptide: H[Aib]QGTFTSDYSKYLDEQAAKEFIK(GC8)WLLQT-NH2
modifications: lactam 16-20
- EC50 (pM) hGLP-1R, cAMP accumulation, 0.1% BSA [8]: 8 pM
- EC50 (pM) hGCGR, cAMP accumulation, 0.1% BSA [9]: 20 pM
